How the values were obtained:
Test in all cases: KINOMEscan competition binding
Settings in all cases: compound 10.0 µM
CDK19 (human) = CDK19 (human) (UniProt Q9BWU1)
MAP3K9 (human) = MAP3K9 (human) (UniProt P80192)
FGFR1 (human) = FGFR1 (human) (UniProt P11362)
CAMK1D (human) = CAMK1D (human) (UniProt Q8IU85)
MAPK11 (human) = MAPK11 (human) (UniProt Q15759)
MAP2K3 (human) = MAP2K3 (human) (UniProt P46734)
GSK3B (human) = GSK3B (human) (UniProt P49841)
ITK (human) = ITK (human) (UniProt Q08881)
[1] = tested on: PIK3CA (human), P42336 [C420R]
CIT (human) = CIT (human) (UniProt O14578)
STK11 (human) = STK11 (human) (UniProt Q15831)
RIPK4 (human) = RIPK4 (human) (UniProt P57078)
[2] = tested on: FGFR3 (human), P22607 [G697C]
HIPK1 (human) = HIPK1 (human) (UniProt Q86Z02)
MAPK4 (human) = MAPK4 (human) (UniProt P31152)
PTK6 (human) = PTK6 (human) (UniProt Q13882)
[3] = tested on: EGFR (human), P00533 [747-751 del / S ins]
NEK3 (human) = NEK3 (human) (UniProt P51956)
SIK2 (human) = SIK2 (human) (UniProt Q9H0K1)
GAK (human) = GAK (human) (UniProt O14976)
MAPK15 (human) = MAPK15 (human) (UniProt Q8TD08)
MAP3K11 (human) = MAP3K11 (human) (UniProt Q16584)
PIP5K1C (human) = PIP5K1C (human) (UniProt O60331)
PRKAA1 (human) = PRKAA1 (human) (UniProt Q13131)
MKNK2 (human) = MKNK2 (human) (UniProt Q9HBH9)
SRMS (human) = SRMS (human) (UniProt Q9H3Y6)
FLT4 (human) = FLT4 (human) (UniProt P35916)
[4] = tested on: MET (human), P08581 [M1250T]
SYK (human) = SYK (human) (UniProt P43405)
PRKD3 (human) = PRKD3 (human) (UniProt O94806)
ERN1 (human) = ERN1 (human) (UniProt O75460)
SRC (human) = SRC (human) (UniProt P12931)
TGFBR2 (human) = TGFBR2 (human) (UniProt P37173)
PRKCD (human) = PRKCD (human) (UniProt Q05655)
CHUK (human) = CHUK (human) (UniProt O15111)
FES (human) = FES (human) (UniProt P07332)
MAP2K6 (human) = MAP2K6 (human) (UniProt P52564)
MAPKAPK2 (human) = MAPKAPK2 (human) (UniProt P49137)
RAF1 (human) = RAF1 (human) (UniProt P04049)
[5] = tested on: EGFR (human), P00533 [G719C]
MAP3K15 (human) = MAP3K15 (human) (UniProt Q6ZN16)
TIE1 (human) = TIE1 (human) (UniProt P35590)
PHKG2 (human) = PHKG2 (human) (UniProt P15735)

Chain of GSK3B (human) (P49841 whole entry, looked up): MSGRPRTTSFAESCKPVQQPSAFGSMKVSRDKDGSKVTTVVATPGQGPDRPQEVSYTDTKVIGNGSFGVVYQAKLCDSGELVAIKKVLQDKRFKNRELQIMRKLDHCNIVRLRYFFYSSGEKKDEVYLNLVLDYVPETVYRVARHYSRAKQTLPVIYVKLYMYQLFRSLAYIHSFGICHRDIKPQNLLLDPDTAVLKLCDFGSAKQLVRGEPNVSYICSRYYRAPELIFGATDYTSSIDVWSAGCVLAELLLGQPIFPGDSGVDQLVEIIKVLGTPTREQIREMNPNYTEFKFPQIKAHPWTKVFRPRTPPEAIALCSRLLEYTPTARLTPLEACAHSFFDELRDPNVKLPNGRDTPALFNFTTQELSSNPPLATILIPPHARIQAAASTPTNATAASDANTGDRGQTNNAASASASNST
Chain of CIT (human) (O14578 whole entry, looked up): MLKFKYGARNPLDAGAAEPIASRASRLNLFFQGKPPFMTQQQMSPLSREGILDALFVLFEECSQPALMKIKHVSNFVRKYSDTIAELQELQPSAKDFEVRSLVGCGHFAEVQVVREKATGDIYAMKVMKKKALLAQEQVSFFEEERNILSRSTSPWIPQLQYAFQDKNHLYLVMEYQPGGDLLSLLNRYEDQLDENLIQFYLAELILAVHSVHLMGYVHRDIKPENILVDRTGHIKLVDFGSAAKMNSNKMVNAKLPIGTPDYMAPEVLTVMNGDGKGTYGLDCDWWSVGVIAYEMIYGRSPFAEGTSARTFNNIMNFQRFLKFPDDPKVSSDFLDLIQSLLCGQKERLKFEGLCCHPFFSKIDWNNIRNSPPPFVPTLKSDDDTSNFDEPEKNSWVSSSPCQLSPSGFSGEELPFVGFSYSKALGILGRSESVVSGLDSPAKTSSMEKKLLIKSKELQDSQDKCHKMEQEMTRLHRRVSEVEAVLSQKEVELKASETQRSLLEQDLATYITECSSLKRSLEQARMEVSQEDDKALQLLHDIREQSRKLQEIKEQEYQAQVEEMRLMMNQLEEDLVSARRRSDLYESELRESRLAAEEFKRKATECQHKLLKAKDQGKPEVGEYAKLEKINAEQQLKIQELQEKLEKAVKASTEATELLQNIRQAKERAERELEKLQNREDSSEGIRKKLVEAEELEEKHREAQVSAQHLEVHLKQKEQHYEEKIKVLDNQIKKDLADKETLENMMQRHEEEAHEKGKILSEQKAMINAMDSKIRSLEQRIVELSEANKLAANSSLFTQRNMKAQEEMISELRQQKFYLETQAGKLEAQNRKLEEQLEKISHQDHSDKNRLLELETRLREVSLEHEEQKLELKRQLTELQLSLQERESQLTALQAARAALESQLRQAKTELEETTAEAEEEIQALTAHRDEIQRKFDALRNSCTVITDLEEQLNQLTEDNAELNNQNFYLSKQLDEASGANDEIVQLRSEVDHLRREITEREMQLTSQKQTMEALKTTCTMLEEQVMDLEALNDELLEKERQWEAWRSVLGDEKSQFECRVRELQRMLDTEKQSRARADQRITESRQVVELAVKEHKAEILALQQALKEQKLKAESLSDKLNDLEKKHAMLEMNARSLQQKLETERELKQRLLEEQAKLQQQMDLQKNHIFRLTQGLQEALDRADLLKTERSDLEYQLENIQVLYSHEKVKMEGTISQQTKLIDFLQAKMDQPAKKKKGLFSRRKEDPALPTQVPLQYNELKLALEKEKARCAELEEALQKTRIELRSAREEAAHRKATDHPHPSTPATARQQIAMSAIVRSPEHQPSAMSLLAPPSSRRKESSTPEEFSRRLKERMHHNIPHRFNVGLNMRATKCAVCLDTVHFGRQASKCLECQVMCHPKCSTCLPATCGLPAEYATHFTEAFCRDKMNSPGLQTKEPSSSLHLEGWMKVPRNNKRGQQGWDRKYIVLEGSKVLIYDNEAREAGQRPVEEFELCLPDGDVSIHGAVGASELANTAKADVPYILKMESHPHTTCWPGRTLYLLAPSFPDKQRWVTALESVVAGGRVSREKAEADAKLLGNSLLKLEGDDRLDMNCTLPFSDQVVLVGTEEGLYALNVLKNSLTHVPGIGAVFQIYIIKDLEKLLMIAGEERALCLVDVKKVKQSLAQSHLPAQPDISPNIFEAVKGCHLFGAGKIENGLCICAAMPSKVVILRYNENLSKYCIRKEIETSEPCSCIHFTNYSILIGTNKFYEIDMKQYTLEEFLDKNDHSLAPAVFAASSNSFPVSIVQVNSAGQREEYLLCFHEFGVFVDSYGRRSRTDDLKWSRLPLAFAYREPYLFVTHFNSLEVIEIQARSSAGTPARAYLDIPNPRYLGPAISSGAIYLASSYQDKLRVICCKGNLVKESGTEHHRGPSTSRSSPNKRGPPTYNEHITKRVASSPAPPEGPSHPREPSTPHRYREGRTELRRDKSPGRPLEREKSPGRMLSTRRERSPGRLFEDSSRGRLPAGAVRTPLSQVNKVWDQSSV
Chain of MAP3K15 (human) (Q6ZN16 whole entry, looked up): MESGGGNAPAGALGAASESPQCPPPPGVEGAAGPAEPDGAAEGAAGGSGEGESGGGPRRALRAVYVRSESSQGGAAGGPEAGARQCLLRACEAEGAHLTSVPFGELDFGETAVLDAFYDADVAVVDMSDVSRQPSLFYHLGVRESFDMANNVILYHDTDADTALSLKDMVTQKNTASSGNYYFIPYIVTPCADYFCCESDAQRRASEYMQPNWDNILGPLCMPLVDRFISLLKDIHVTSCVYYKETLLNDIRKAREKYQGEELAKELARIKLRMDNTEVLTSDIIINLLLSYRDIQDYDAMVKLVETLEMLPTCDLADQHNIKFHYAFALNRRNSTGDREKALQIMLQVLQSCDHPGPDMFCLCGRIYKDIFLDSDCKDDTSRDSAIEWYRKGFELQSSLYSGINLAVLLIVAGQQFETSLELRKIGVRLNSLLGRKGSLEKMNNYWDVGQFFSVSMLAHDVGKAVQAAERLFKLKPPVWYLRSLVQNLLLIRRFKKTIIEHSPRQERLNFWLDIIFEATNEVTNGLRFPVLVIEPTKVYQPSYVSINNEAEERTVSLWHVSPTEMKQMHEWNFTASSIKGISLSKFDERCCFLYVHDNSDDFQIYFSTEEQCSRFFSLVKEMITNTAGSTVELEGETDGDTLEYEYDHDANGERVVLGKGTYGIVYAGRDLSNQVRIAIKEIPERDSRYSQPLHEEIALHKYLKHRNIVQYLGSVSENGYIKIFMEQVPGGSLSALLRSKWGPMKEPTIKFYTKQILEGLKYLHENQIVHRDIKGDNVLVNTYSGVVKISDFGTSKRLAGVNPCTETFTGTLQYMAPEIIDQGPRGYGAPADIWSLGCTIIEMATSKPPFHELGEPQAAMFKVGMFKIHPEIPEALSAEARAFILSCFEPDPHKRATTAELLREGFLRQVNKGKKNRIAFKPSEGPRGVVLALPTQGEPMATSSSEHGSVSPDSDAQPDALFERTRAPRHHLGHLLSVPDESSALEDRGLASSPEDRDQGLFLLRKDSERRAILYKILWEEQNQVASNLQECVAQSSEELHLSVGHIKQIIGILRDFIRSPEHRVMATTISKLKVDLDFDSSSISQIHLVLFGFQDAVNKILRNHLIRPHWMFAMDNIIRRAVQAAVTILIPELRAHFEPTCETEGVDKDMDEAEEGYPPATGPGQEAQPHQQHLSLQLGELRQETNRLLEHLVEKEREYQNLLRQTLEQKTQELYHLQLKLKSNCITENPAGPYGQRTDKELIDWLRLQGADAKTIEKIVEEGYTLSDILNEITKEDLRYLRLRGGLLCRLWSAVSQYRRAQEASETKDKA
Chain of TGFBR2 (human) (P37173 whole entry, looked up): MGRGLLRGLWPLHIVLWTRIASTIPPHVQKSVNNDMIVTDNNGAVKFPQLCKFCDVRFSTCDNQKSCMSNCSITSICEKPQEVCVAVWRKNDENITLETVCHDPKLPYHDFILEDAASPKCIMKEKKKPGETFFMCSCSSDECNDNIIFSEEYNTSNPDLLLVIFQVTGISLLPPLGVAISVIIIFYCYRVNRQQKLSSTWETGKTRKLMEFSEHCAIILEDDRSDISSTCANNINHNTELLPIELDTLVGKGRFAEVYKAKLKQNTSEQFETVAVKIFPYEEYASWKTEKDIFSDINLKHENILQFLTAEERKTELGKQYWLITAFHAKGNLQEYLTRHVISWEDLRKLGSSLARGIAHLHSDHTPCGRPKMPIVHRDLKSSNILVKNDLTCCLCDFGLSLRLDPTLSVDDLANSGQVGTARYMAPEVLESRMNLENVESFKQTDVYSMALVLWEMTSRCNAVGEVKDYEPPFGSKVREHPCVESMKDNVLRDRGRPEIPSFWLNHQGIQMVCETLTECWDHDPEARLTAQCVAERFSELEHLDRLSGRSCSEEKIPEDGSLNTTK
Chain of MAP2K3 (human) (P46734 whole entry, looked up): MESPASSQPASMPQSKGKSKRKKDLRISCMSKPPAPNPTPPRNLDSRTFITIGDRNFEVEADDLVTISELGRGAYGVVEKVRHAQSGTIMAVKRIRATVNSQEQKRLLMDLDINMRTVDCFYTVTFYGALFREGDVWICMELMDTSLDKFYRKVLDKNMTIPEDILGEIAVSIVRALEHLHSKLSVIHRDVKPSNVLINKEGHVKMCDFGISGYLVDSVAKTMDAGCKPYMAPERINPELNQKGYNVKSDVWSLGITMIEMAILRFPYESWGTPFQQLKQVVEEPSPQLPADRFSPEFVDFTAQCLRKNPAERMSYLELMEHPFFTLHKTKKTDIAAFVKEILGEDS
Chain of MAPK11 (human) (Q15759 whole entry, looked up): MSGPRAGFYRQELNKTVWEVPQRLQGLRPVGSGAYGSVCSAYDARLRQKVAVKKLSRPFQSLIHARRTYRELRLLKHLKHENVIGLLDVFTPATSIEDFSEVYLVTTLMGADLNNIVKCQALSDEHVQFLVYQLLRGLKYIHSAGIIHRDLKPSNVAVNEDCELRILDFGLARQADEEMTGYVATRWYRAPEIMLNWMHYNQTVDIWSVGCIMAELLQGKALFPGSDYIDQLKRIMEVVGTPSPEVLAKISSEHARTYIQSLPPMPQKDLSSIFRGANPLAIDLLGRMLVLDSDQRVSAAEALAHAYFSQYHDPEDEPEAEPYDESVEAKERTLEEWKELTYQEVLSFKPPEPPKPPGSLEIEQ

In the case of `Cc1ccc(NC(=O)c2ccc(NC(=O)/C=C/CN(C)C)cc2)cc1Nc1nccc(-c2cccnc2)n1`, the kinase still bound, per cent of control (CDK19 (human)) is reported as 32%, the kinase still bound, per cent of control (MAP3K9 (human)) is reported as 100% and the kinase still bound, per cent of control (FGFR1 (human)) is reported as 87%. The kinase still bound, per cent of control (CAMK1D (human)) was 85%, the kinase still bound, per cent of control (MAPK11 (human)) was 49% and the kinase still bound, per cent of control (MAP2K3 (human)) was 50%. For the same compound, the kinase still bound, per cent of control (GSK3B (human)) was 87%, the kinase still bound, per cent of control (ITK (human)) was 100% and the kinase still bound, per cent of control [1] was 100%. It also gave a kinase still bound, per cent of control (CIT (human)) of 59%, a kinase still bound, per cent of control (STK11 (human)) of 92% and a kinase still bound, per cent of control (RIPK4 (human)) of 97%. The kinase still bound, per cent of control [2] was 97%, the kinase still bound, per cent of control (HIPK1 (human)) was 44% and the kinase still bound, per cent of control (MAPK4 (human)) was 100%. For the same compound, the kinase still bound, per cent of control (PTK6 (human)) was 85%, the kinase still bound, per cent of control [3] was 50% and the kinase still bound, per cent of control (NEK3 (human)) was 99%. It also gave a kinase still bound, per cent of control (SIK2 (human)) of 80%, a kinase still bound, per cent of control (GAK (human)) of 8.6% and a kinase still bound, per cent of control (MAPK15 (human)) of 100%. The kinase still bound, per cent of control (MAP3K11 (human)) was 100%, the kinase still bound, per cent of control (PIP5K1C (human)) was 90% and the kinase still bound, per cent of control (PRKAA1 (human)) was 73%. It also gave a kinase still bound, per cent of control (MKNK2 (human)) of 4.2%, a kinase still bound, per cent of control (SRMS (human)) of 71% and a kinase still bound, per cent of control (FLT4 (human)) of 88%. It also gave a kinase still bound, per cent of control [4] of 100%, a kinase still bound, per cent of control (SYK (human)) of 62% and a kinase still bound, per cent of control (PRKD3 (human)) of 100%. It also gave a kinase still bound, per cent of control (ERN1 (human)) of 98%, a kinase still bound, per cent of control (SRC (human)) of 78% and a kinase still bound, per cent of control (TGFBR2 (human)) of 100%. For the same compound, the kinase still bound, per cent of control (PRKCD (human)) was 96%, the kinase still bound, per cent of control (CHUK (human)) was 70% and the kinase still bound, per cent of control (FES (human)) was 100%. The kinase still bound, per cent of control (MAP2K6 (human)) was 100%, the kinase still bound, per cent of control (MAPKAPK2 (human)) was 100% and the kinase still bound, per cent of control (RAF1 (human)) was 55%. For the same compound, the kinase still bound, per cent of control [5] was 45%, the kinase still bound, per cent of control (MAP3K15 (human)) was 92% and the kinase still bound, per cent of control (TIE1 (human)) was 80%. The kinase still bound, per cent of control (PHKG2 (human)) was 86%.
